Columns and labels:
[1] = Prodrug conversion in HEPES buffer assessed as Escherichia coli MPT synthase-mediated 2-amino-6-(3,4-dihydroxybut-1-ynyl)pteridin-4(3H)-one formation measured as activation of human apo-sulfite oxidase incubated for 30 mins prior to apo-sulfite oxidase addition measured after 30 mins by spectrophotometric analysis in presence of gephyrin; settings: 0.5 h
[2] = Prodrug conversion in Tris/HCl buffer assessed as Escherichia coli MPT synthase-mediated 2-amino-6-(3,4-dihydroxybut-1-ynyl)pteridin-4(3H)-one formation after 30 mins by HPLC analysis; type: ADME; settings: 0.5 h
[3] = Half life of aerial oxidation of the compound at pH 3; type: physicochemical

Row | Drug metabolism [1] | Drug metabolism [2] | half-life [3] [h] | Compound
1 | Dose-dependent effect | Dose-dependent effect | – | Br.Nc1nc2c(c(=O)[nH]1)N[C@@H]1[C@H](N2)O[C@@H]2COP(=O)(O)O[C@@H]2C1(O)O
2 | Active | Active | 10.6 | Nc1nc2c(c(=O)[nH]1)N[C@@H]1[C@H](N2)O[C@@H]2COP(=O)(O)O[C@@H]2C1(O)O [FOSDENOPTERIN]

Source: ChEMBL document CHEMBL2331113, “Synthesis of cyclic pyranopterin monophosphate, a biosynthetic intermediate in the molybdenum cofactor pathway” (J Med Chem, 2013)
